Assay results: ChEMBL document CHEMBL3217578, “Synthesis of a novel thiophene derivative that induces cancer cell apoptosis through modulation of AKT and MAPK pathways” (Medchemcomm, 2012)
Converted amounts (≈) assume the structure as drawn. The source made the active and inactive calls. The rule behind the calls is not given here.

Legend:
[1] = system: N2a; experiment: Induction of apoptosis in mouse Neuro2a cells assessed as activation of caspase-3 at 8 ug/ml using Ac-[…]-AFC as substrate by fluorometric assay relative to control; assay type: functional
[2] = system: N2a; experiment: Induction of apoptosis in mouse Neuro2a cells assessed as reduction of ROS production after 3 hrs by DCF fluorescence assay; assay type: functional, cell-based
[3] = system: N2a; experiment: Cytotoxicity against mouse Neuro2a cells at 8 ug/ml after 24 hrs by MTT assay in presence of NAC; assay type: functional, cell-based
[4] = Antioxidant activity assessed as ABTS free radical scavenging activity; assay type: functional; conditions: TDE = time-dependent effect
[5] = molecular target: RAC-alpha serine/threonine-protein kinase (Mus musculus) (UniProt P31750); experiment: Inhibition of AKT phosphorylation in mouse Neuro2a cells after 24 hrs by Western blot analysis; assay type: cell-based
[6] = molecular target: RAC-alpha serine/threonine-protein kinase (Mus musculus) (UniProt P31750); experiment: Inhibition of AKT phosphorylation in mouse Neuro2a cells assessed as total protein level after 24 hrs by Western blot analysis; assay type: cell-based
[7] = system: Neuro2a; experiment: Inhibition of ERK phosphorylation in mouse Neuro2a cells at 2 ug/ml after 24 hrs by Western blot analysis relative to beta-actin; assay type: cell-based
[8] = system: Neuro2a; experiment: Inhibition of ERK phosphorylation in mouse Neuro2a cells assessed as total protein level at 2 ug/ml after 24 hrs by Western blot analysis relative to beta-actin; assay type: cell-based
[9] = system: Neuro2a; experiment: Inhibition of JNK phosphorylation in mouse Neuro2a cells at 2 ug/ml after 24 hrs by Western blot analysis relative to beta-actin; assay type: cell-based
[10] = molecular target: T1, MAP kinase p38 (Mus musculus) (UniProt P47811+O08911+Q9WUI1+Q9Z1B7); experiment: Inhibition of p38 phosphorylation in mouse Neuro2a cells at 2 to 8 ug/ml after 24 hrs by Western blot analysis; assay type: cell-based
[11] = system: Neuro2a; experiment: Inhibition of JNK phosphorylation in mouse Neuro2a cells assessed as total protein level at 2 to 8 ug/ml after 24 hrs by Western blot analysis; assay type: cell-based
[12] = molecular target: RAC-alpha serine/threonine-protein kinase (Mus musculus) (UniProt P31750); experiment: Inhibition of AKT phosphorylation in mouse Neuro2a cells at 2 ug/ml after 24 hrs by Western blot analysis relative to beta-actin; assay type: cell-based
[13] = molecular target: RAC-alpha serine/threonine-protein kinase (Mus musculus) (UniProt P31750); experiment: Inhibition of AKT phosphorylation in mouse Neuro2a cells at 4 ug/ml after 24 hrs by Western blot analysis relative to beta-actin; assay type: cell-based
[14] = molecular target: RAC-alpha serine/threonine-protein kinase (Mus musculus) (UniProt P31750); experiment: Inhibition of AKT phosphorylation in mouse Neuro2a cells at 8 ug/ml after 24 hrs by Western blot analysis relative to beta-actin; assay type: cell-based
[15] = molecular target: RAC-alpha serine/threonine-protein kinase (Mus musculus) (UniProt P31750); experiment: Inhibition of AKT phosphorylation in mouse Neuro2a cells assessed as total protein level at 2 ug/ml after 24 hrs by Western blot analysis relative to beta-actin; assay type: cell-based
[16] = molecular target: RAC-alpha serine/threonine-protein kinase (Mus musculus) (UniProt P31750); experiment: Inhibition of AKT phosphorylation in mouse Neuro2a cells assessed as total protein level at 4 ug/ml after 24 hrs by Western blot analysis relative to beta-actin; assay type: cell-based
[17] = molecular target: RAC-alpha serine/threonine-protein kinase (Mus musculus) (UniProt P31750); experiment: Inhibition of AKT phosphorylation in mouse Neuro2a cells assessed as total protein level at 8 ug/ml after 24 hrs by Western blot analysis relative to beta-actin; assay type: cell-based
[18] = system: Neuro2a; experiment: Inhibition of ERK phosphorylation in mouse Neuro2a cells at 4 ug/ml after 24 hrs by Western blot analysis relative to beta-actin; assay type: cell-based
[19] = system: Neuro2a; experiment: Inhibition of ERK phosphorylation in mouse Neuro2a cells at 8 ug/ml after 24 hrs by Western blot analysis relative to beta-actin; assay type: cell-based
[20] = system: Neuro2a; experiment: Inhibition of ERK phosphorylation in mouse Neuro2a cells assessed as total protein level at 4 ug/ml after 24 hrs by Western blot analysis relative to beta-actin; assay type: cell-based
[21] = system: Neuro2a; experiment: Inhibition of ERK phosphorylation in mouse Neuro2a cells assessed as total protein level at 8 ug/ml after 24 hrs by Western blot analysis relative to beta-actin; assay type: cell-based
[22] = molecular target: T1, MAP kinase p38 (Mus musculus); experiment: Inhibition of p38 phosphorylation in mouse Neuro2a cells assessed as total protein level at 2 ug/ml after 24 hrs by Western blot analysis relative to beta-actin; assay type: cell-based
[23] = system: Neuro2a; experiment: Inhibition of JNK phosphorylation in mouse Neuro2a cells at 4 ug/ml after 24 hrs by Western blot analysis relative to beta-actin; assay type: cell-based
[24] = system: Neuro2a; experiment: Inhibition of JNK phosphorylation in mouse Neuro2a cells at 8 ug/ml after 24 hrs by Western blot analysis relative to beta-actin; assay type: cell-based
[25] = system: Neuro2a; experiment: Inhibition of JNK phosphorylation in mouse Neuro2a cells assessed as total protein level at 2 ug/ml after 24 hrs by Western blot analysis relative to beta-actin; assay type: cell-based
[26] = system: Neuro2a; experiment: Inhibition of JNK phosphorylation in mouse Neuro2a cells assessed as total protein level at 4 ug/ml after 24 hrs by Western blot analysis relative to beta-actin; assay type: cell-based
[27] = system: Neuro2a; experiment: Inhibition of JNK phosphorylation in mouse Neuro2a cells assessed as total protein level at 8 ug/ml after 24 hrs by Western blot analysis relative to beta-actin; assay type: cell-based
[28] = molecular target: T1, MAP kinase p38 (Mus musculus); experiment: Inhibition of p38 phosphorylation in mouse Neuro2a cells assessed as total protein level at 4 ug/ml after 24 hrs by Western blot analysis relative to beta-actin; assay type: cell-based
[29] = molecular target: T1, MAP kinase p38 (Mus musculus); experiment: Inhibition of p38 phosphorylation in mouse Neuro2a cells assessed as total protein level at 8 ug/ml after 24 hrs by Western blot analysis relative to beta-actin; assay type: cell-based
[30] = (§1) Cytotoxicity against mouse Neuro2a cells after 72 hrs by MTT assay; assay type: functional, cell-based; conditions: N2a
[31] = system: N2a; experiment: as §1; assay type: functional, cell-based
[32] = Cytotoxicity against human MG63 cells after 72 hrs by MTT assay; assay type: functional, cell-based; conditions: MG-63, 72 h
[33] = Cytotoxicity against human HeLa 229 cells after 72 hrs by MTT assay; assay type: functional, cell-based; conditions: HeLa 229, 72 h
[34] = system: A-375; experiment: Cytotoxicity against human A375 cells after 72 hrs by MTT assay; assay type: functional, cell-based; conditions: A-375, 72 h
[35] = system: PC-3; experiment: Cytotoxicity against human PC3 cells after 72 hrs by MTT assay; assay type: functional, cell-based; conditions: PC-3, 72 h
[36] = Cytotoxicity against human HK2 cells after 72 hrs by MTT assay; assay type: cell-based; conditions: HK-2, 72 h
[37] = Cell cycle arrest in mouse Neuro2a cells assessed as accumulation at sub-G1 phase at 2 ug/ml after 72 hrs using propidium iodide staining by flow cytometry analysis (reference value: 4.7%); assay type: functional, cell-based; conditions: N2a
[38] = Cell cycle arrest in mouse Neuro2a cells assessed as accumulation at G0/G1 phase at 2 ug/ml after 72 hrs using propidium iodide staining by flow cytometry analysis (reference value: 41.6%); assay type: functional, cell-based; conditions: N2a
[39] = Cell cycle arrest in mouse Neuro2a cells assessed as accumulation at S phase at 2 ug/ml after 72 hrs using propidium iodide staining by flow cytometry analysis (reference value: 48.5%); assay type: functional, cell-based; conditions: N2a
[40] = Cell cycle arrest in mouse Neuro2a cells assessed as accumulation at G2/M phase at 2 ug/ml after 72 hrs using propidium iodide staining by flow cytometry analysis (reference value: 9.9%); assay type: functional, cell-based; conditions: N2a
[41] = Cell cycle arrest in mouse Neuro2a cells assessed as accumulation at sub-G1 phase at 4 ug/ml after 72 hrs using propidium iodide staining by flow cytometry analysis (reference value: 4.7%); assay type: functional, cell-based; conditions: N2a
[42] = Cell cycle arrest in mouse Neuro2a cells assessed as accumulation at G0/G1 phase at 4 ug/ml after 72 hrs using propidium iodide staining by flow cytometry analysis (reference value: 41.6%); assay type: functional, cell-based; conditions: N2a
[43] = Cell cycle arrest in mouse Neuro2a cells assessed as accumulation at S phase at 4 ug/ml after 72 hrs using propidium iodide staining by flow cytometry analysis (reference value: 48.5%); assay type: functional, cell-based; conditions: N2a
[44] = Cell cycle arrest in mouse Neuro2a cells assessed as accumulation at G2/M phase at 4 ug/ml after 72 hrs using propidium iodide staining by flow cytometry analysis (reference value: 9.9%); assay type: functional, cell-based; conditions: N2a
[45] = Cell cycle arrest in mouse Neuro2a cells assessed as accumulation at sub-G1 phase at 8 ug/ml after 72 hrs using propidium iodide staining by flow cytometry analysis (reference value: 4.7%); assay type: functional, cell-based; conditions: N2a
[46] = Cell cycle arrest in mouse Neuro2a cells assessed as accumulation at G0/G1 phase at 8 ug/ml after 72 hrs using propidium iodide staining by flow cytometry analysis (reference value: 41.6%); assay type: functional, cell-based; conditions: N2a
[47] = Cell cycle arrest in mouse Neuro2a cells assessed as accumulation at S phase at 8 ug/ml after 72 hrs using propidium iodide staining by flow cytometry analysis (reference value: 48.5%); assay type: functional, cell-based; conditions: N2a
[48] = Cell cycle arrest in mouse Neuro2a cells assessed as accumulation at G2/M phase at 8 ug/ml after 72 hrs using propidium iodide staining by flow cytometry analysis (reference value: 9.9%); assay type: functional, cell-based; conditions: N2a
[49] = Cell cycle arrest in mouse Neuro2a cells assessed as accumulation at sub-G1 phase after 72 hrs using propidium iodide staining by flow cytometry analysis; assay type: functional, cell-based; conditions: N2a
[50] = system: N2a; experiment: Induction of apoptosis in mouse Neuro2a cells assessed as DNA fragmentation and nuclear condensation after 24 hrs by TUNEL-DAPI co-staining assay; assay type: functional, cell-based
[51] = system: N2a; experiment: Induction of apoptosis in mouse Neuro2a cells assessed as activation of caspase-3 using Ac-DEVD-AFC as substrate by fluorometric assay; assay type: functional, cell-based
[52] = system: N2a; experiment: Induction of apoptosis in mouse Neuro2a cells assessed as activation of caspase-8 using IETD-AFC as substrate by fluorometric assay; assay type: functional, cell-based
[53] = system: N2a; experiment: Induction of apoptosis in mouse Neuro2a cells assessed as activation of caspase-9 using Ac-LEHD-AFC as substrate by fluorometric assay; assay type: functional, cell-based
[54] = system: N2a; experiment: Induction of apoptosis in mouse Neuro2a cells assessed as activation of caspase-9 at 4 ug/ml using Ac-LEHD-AFC as substrate by fluorometric assay relative to control; assay type: functional

Sequence of RAC-alpha serine/threonine-protein kinase (Mus musculus) (P31750 whole entry): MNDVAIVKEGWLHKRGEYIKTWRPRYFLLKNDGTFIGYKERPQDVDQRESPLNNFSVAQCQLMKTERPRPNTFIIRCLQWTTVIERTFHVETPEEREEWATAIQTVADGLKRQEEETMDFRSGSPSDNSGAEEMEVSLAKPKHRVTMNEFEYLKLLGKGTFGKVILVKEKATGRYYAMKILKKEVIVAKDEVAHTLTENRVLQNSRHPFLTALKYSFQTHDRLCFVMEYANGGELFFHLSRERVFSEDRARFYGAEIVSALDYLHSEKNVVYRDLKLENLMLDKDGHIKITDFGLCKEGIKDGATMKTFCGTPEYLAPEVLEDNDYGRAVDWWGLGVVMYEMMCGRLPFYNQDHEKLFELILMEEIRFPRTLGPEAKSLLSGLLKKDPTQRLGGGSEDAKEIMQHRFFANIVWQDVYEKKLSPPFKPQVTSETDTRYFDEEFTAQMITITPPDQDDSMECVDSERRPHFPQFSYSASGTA

With Oc1ccc(-n2c(-c3cccs3)ccc2-c2cccs2)cc1 the “fold change (FC)” value [1] was 1.5, the Activity [2] was “Dose-dependent effect” and the “growth inhibition (GI)” value [3] was “Active”. For the same compound, the Activity [4] was “tde”, the inhibition [5] was “Dose-dependent effect” and the inhibition [6] was “Dose-dependent effect”. It also gave a fold change (FC) [7] of 0, a fold change (FC) [8] of 1 and a fold change (FC) [9] of 0.9. For the same compound, the inhibition [10] was “inactive”, the inhibition [11] was “inactive” and the fold change (FC) [12] was 0.8. For the same compound, the fold change (FC) [13] was 0.3, the fold change (FC) [14] was 0.1 and the fold change (FC) [15] was 0.8. For the same compound, the fold change (FC) [16] was 0.7, the fold change (FC) [17] was 0.4 and the fold change (FC) [18] was 0. For the same compound, the fold change (FC) [19] was 0, the fold change (FC) [20] was 0.6 and the fold change (FC) [21] was 0.6. It also gave a fold change (FC) [22] of 1.2, a fold change (FC) [23] of 1.6 and a fold change (FC) [24] of 2.1. The fold change (FC) [25] was 1, the fold change (FC) [26] was 1 and the fold change (FC) [27] was 0.9. The fold change (FC) [28] was 1.6, the fold change (FC) [29] was 1.7 and the IC50 [30] was 2.6 mg/L (≈ 8.04 µM). The “growth inhibition (GI)” value [31] was “Dose-dependent effect”, the IC50 [32] was 39.6 mg/L (≈ 122 µM) and the IC50 [33] was 36.4 mg/L (≈ 113 µM). For the same compound, the IC50 [34] was 27.6 mg/L (≈ 85.3 µM), the IC50 [35] was 51.3 mg/L (≈ 159 µM) and the IC50 [36] was 73.4 mg/L (≈ 227 µM). For the same compound, the Activity [37] was 9.1%, the Activity [38] was 39.9% and the Activity [39] was 48.5%. It also gave an Activity [40] of 11.6%, an Activity [41] of 19.2% and an Activity [42] of 46.9%. For the same compound, the Activity [43] was 42.6%, the Activity [44] was 10.5% and the Activity [45] was 26.3%. For the same compound, the Activity [46] was 44.4%, the Activity [47] was 38.9% and the Activity [48] was 15.7%. For the same compound, the Activity [49] was “Dose-dependent effect”, the Activity [50] was “Dose-dependent effect” and the Activity [51] was “Dose-dependent effect”. For the same compound, the Activity [52] was “Dose-dependent effect”, the Activity [53] was “Dose-dependent effect” and the “fold change (FC)” value [54] was 1.4.

For O=C(CCC(=O)c1cccs1)c1cccs1, the IC50 [30] was 343 mg/L (≈ 1370 µM), the IC50 [32] was 366 mg/L (≈ 1460 µM) and the IC50 [33] was over 400 mg/L. It also gave an IC50 [34] of 115 mg/L (≈ 459 µM), an IC50 [35] of over 400 mg/L and an IC50 [36] of over 400 mg/L.
